Source: patent US20240207361A1, “ERYTHROPOIETIN-DERIVED PEPTIDES FOR TREATING RELAPSING-REMITTING MULTIPLE SCLEROSIS” (The United States Government as represented by the …, priority 2021, published 2024)
Entries after “also recorded” stand apart in the source; their conditions may differ.

How the values were obtained:
[1] = test system: MOG-induced EAE GFAP-Luc/C57 mice; assay: Clinical neurologic scoring in MOG-induced monophasic EAE; assay type: in vivo, mouse; conditions: for clinical score compared to sham treated: 5 μg IV daily for 12 days from day 9, n=8 per group
Excerpt: (§1) Methods. Animals. Male FVB/N-Tg (GFAP-luc+/−) mice (Xenogen Corp, Alameda, CA) were crossed with either albino C57BL/6J-Tyrc-2j or SJL/J mice purchased from Charles River Laboratories (Wilmington, MA). The FI offspring were genotyped by PCR following the manufacturer's protocol. Female mice between 8-10 weeks of age positive for GFAP (GFAP-luc/C57 or GFAP-Luc/SJL) expression were used.
Induction of EAE and clinical assessment of animals. Active EAE was induced according to a standard protocol (Smith M, et al. Brain Research 1983:264:241-53). Mice were immunized on Day 0 by subcutaneous injection on both sides of the tail base with 100 μL of an emulsion composed of either PLP139-151 or MOG35-55 peptide in an equal volume of Freund's adjuvant, supplemented with 4 mg/mL killed M. tuberculosis H37Ra (Difco Laboratories, Detroit, MI). The initial dose of antigen was 100 μg of PLP peptide for inducing relapsing EAE in SJL/J mice, or 200 μg of MOG peptide per C57BL/6 mouse for induction of acute monophasic EAE. GFAP-Luc/SJL/J mice received a second PLP antigen immunization on Day 7. Immediately following these immunizations, mice received intravenous (IV) injections of 200 ng Bordetella pertussis toxin diluted in 200 μL phosphate buffered saline (PBS) (List Biological Laboratories, Campbell, CA). […] Animals were weighed and assessed daily for clinical signs of EAE by two blinded independent observers during the acute phase of illness, and followed three times a week during the later chronic phase. The monophasic EAE MOG C57BL6 model was monitored for 28-30 days and the PLP SJL/J relapsing model was followed for nearly 6 months after immunization. The clinical scoring system used to quantify behavioral neurological deficits in the EAE mouse models (Table 2) was previously described (Aquino D, et al. Journal of Neurochemistry 1990:54:1398-404). […]
Statistical analysis. […] Bioluminescence was measured by the number of days where luminescence intensity in the spinal cord exceeded a threshold of 0.5 relative to the left ear. […]

GFAP-luc [2] = assay: GFAP-luc bioluminescence imaging (BLI) in MOG-induced EAE; assay type: in vivo, mouse
Procedure: (§2) Bioluminescence Imaging (BLI). Bioluminescent signals were quantified using the In Vivo Imaging System 100 (IVIS: Xenogen, Alameda, CA) with a cold Charged Coupled Device (CCD) camera mounted in a dark box. Three animals were imaged simultaneously. Mice received an IV injection of 1 mg/kg D-luciferin (Xenogen) 2-3 minutes prior to imaging and were immediately anesthetized with vaporized isoflurane for imaging. The imaging signal was quantified in units of photons per second per centimeter squared per steradian (photons/s·cm2/sr) using […] Version 3.1 (Xenogen) software and integrated over 2 minutes. For signal quantification, photons were obtained from a “region of interest” (ROI) that covered 2.18 cm2 of contiguous forebrain and 5.27 cm2 of spinal cord region. Bioluminescence was expressed as a ratio of the total photons value from the central nervous system ROI to the photon value obtained from an equal sized area over the left ear, used as an endogenous control. In the acute EAE model, measurements were typically taken every 1-2 days and the average of 2 consecutive days readings were used. Bioluminescence imaging was performed every other day after disease onset and twice weekly during the later chronic phase of the illness.
(§3) JM4 treatment. The JM4 peptide was first dissolved in distilled water to 2 mg/ml and stored at −80° C. Immediately before use, the peptide solution was further diluted to 5 μg/200 μl with PBS. […] The EAE mice were randomly divided into a JM4 treated and a sham treated group. The JM4 treated EAE animals (4-10 per group) were treated daily with IV JM4 250 μg/kg of the peptide in PBS for 10-12 days. Control EAE animals were sham-treated with IV saline for the same time period. To evaluate the treatment effects, mice underwent BLI examination as well as clinical and histopathologic evaluation.
(§4) Statistical analysis. Data is presented as the mean±SEM. Two tailed t-tests were used to compare JM4 effects on BLI and clinical scores. The long-term effects of JM4 were studied in the relapsing EAE model by using each subject's average clinical score from day 60 onward. Bioluminescence was measured by the number of days where luminescence intensity in the spinal cord exceeded a threshold of 0.5 relative to the left ear. Survival data was examined using a two-tailed log-rank test. Values of p<0.05 were considered significant.

[3] = test system: PLP-induced relapsing-remitting EAE GFAP-Luc/SJL mice; assay: Clinical scoring, relapse and survival in PLP-induced relapsing-remitting EAE; assay type: in vivo, mouse; conditions: for long term clinical scores compared to sham treated: for over five months, n=4 JM-4, n=5 sham, p<0.05 at day 60 onward
Excerpt: as §1
Induction of EAE and clinical assessment of animals. […] Mice were immunized on Day 0 by subcutaneous injection on both sides of the tail base with 100 μL of an emulsion composed of either PLP139-151 or MOG35-55 peptide in an equal volume of Freund's adjuvant, supplemented with 4 mg/mL killed M. tuberculosis H37Ra (Difco Laboratories, Detroit, MI). The initial dose of antigen was 100 μg of PLP peptide for inducing relapsing EAE in SJL/J mice, or 200 μg of MOG peptide per C57BL/6 mouse for induction of acute monophasic EAE. GFAP-Luc/SJL/J mice received a second PLP antigen immunization on Day 7. Immediately following these immunizations, mice received intravenous (IV) injections of 200 ng Bordetella pertussis toxin diluted in 200 μL phosphate buffered saline (PBS) (List Biological Laboratories, Campbell, CA). The GFAP-Luc/C57BL mice received an additional IV injection of 200 ng Bordetella pertussis toxin on post-inoculation Day 2. Animals were weighed and assessed daily for clinical signs of EAE by two blinded independent observers during the acute phase of illness, and followed three times a week during the later chronic phase. The monophasic EAE MOG C57BL6 model was monitored for 28-30 days and the PLP SJL/J relapsing model was followed for nearly 6 months after immunization. The clinical scoring system used to quantify behavioral neurological deficits in the EAE mouse models (Table 2) was previously described (Aquino D, et al. Journal of Neurochemistry 1990:54:1398-404).
Immediately before use, the peptide solution was further diluted to 5 μg/200 μl with PBS. […] Control EAE animals were sham-treated with IV saline for the same time period. To evaluate the treatment effects, mice underwent BLI examination as well as clinical and histopathologic evaluation.
Statistical analysis. Data is presented as the mean±SEM. […] Bioluminescence was measured by the number of days where luminescence intensity in the spinal cord exceeded a threshold of 0.5 relative to the left ear. Survival data was examined using a two-tailed log-rank test. Values of p<0.05 were considered significant.

GFAP-luc [4] = assay: GFAP-luc bioluminescence imaging flare-ups in PLP-induced relapsing-remitting EAE; assay type: in vivo, mouse; conditions: for number of imaging flare ups / GFAP-luc expression compared to sham treated: relapsing-remitting EAE, brain or spinal cord
Procedure: as §2, §3, §4

[5] = test system: SJL/J relapsing-remitting EAE mice; assay: Spinal cord histopathology (Luxol fast blue, SMI-32, mouse IgG) in SJL/J relapsing-remitting EAE; assay type: in vivo
Excerpt: Histopathology. To assess CNS inflammation and demyelination at different time points after immunization, EAE mice in the JM4 peptide-treated and sham-treated groups were anesthetized and perfused with ice-cold PBS, followed by 4% paraformaldehyde into the left ventricle. Spinal cords and brain were removed. Tissues were then embedded in paraffin, sectioned and stained with Luxol-Fast Blue/PAS to determine the extent of demyelination. Five-micron paraffin sections from the high cervical, thoracic and low lumbosacral region of the spinal cord were placed on the same slide. Each slide contained a control normal spinal cord section, a sham-treated EAE cord, and spinal cord sections from JM4 treated EAE animals. Histopathologic examination was performed in blinded fashion. In addition, SMI-32 anti-neurofilament H immunohistochemical staining was completed to assess acute axonal injury (Aquino D, et al. Journal of Neurochemistry 1990:54:1398-404). In brief, 5 μm sections were de-paraffinized, treated with antigen-retrieving solution, and blocked with normal horse serum to minimize nonspecific binding. The sections were first incubated with mouse SMI-32 antibody (Sternberger Monoclonals, Lutherville, MD) diluted 1:5,000 in PBS overnight at 4° C. After two 5-minute PBS washes, the sections were incubated with biotinylated horse anti-mouse IgG (Vector Labs, Burlingame, CA), and then by horseradish peroxidase (HRP)-avidin complex (Vector Labs) for 30 minutes each. Immunostaining was visualized by reacting the sections with diaminobenzidine tetrahydrochloride (Stable DAB: Invitrogen) for 1 to 3 minutes. Excess DAB was removed by washing with distilled water and the slides were evaluated using light microscopy.

complement component C3 = assay: C3/GFAP immunohistochemistry for A1 astrocyte activation in spinal cord of MOG EAE mice; assay type: in vivo, mouse
Procedure: Spinal cord (cut into 6-7 equal pieces from cervical to sacral) was frozen and serially cut at 8 μm-thick cross sections and collected on slides, then post-fixed in acetone at −20° C. for 10 min. Sections were first treated with Target Unmasking Fluid (Pan Path) at 90° C. for 10 min, and blocked in 2% normal horse serum for 10 min. Sections were incubated overnight at 4° C. with either monoclonal rat anti-mouse C3 complement (Abcam, AB11862) at 1:50 or polyclonal rabbit anti-mouse GFAP (Dako Z0334GFAP) at 1:500. The next day sections were washed in PBS three times for 10 min each and incubated with cy3 or cy2 conjugated goat anti-mouse/rat/rabbit IgG (Jackson ImmunResearch) at 1:120 working dilution for 1 hour. Sections were washed in dH2O three times for 10 min each, followed by fluorescence microscopy imaging.
Immunohistochemistry images were obtained using an Olympus BX41 fluorescent microscope (Center Valley, PA, USA) fitted with ProgRes MF cool digital camera using 4× or 10× objectives. Half of each section from different spinal levels was quantified by measuring the percent area in the structure where label exceeded a constant threshold value using Image Pro 4.0 image analysis software (BD Biosciences, Franklin Lakes, NJ).
as §4

[6] = Hematopoietic and other side effects; conditions: acute MOG and relapsing-remitting PLP SJL/J EAE models
EAE mice = conditions: cited from earlier work
[7] = symptomatic EAE mice, literature; cited from earlier work

GCAEHCSLNENITVPDTKV [JM-4]
clinical score compared to sham treated [1]: significantly lower | clinical score compared to sham treated ([1]; listed as JM4): significant reduction in clinical score | maximum mean clinical score ([1]; JM4 250 μg/kg IV for 12 days starting day 9 post-immunization, score scale 0-6 (Table 2), sham 3.7±0.4, p<0.05): 2.25±0.3 | peak bioluminescent values in forebrain and spinal cord compared to sham treated (GFAP-luc [2]; 5 μg IV daily for 12 days from day 9, n=8, p<0.05): significantly lower | spinal cord bioluminescence signal after start of treatment, single imaged animal (GFAP-luc [2]; FIG. 3A, treatment started day 9): virtual absence of spinal cord signal by day 4 | GFAP-luc signal returned to baseline earlier than sham-treated group (GFAP-luc [2]; MOG EAE): 3 to 4 days | reduction of bioluminescence from peak disease scores compared with sham animals (GFAP-luc [2]; at days 11 to 12): 3-4 fold | clinical deficit improved earlier than sham-treated animals ([3]; acute phase of the disease): 7 days | survival ([3]; at 100 days, Kaplan-Meier, sham 50%): 100% | average clinical score ([3]; for 130 days, 12-day course IV 5 μg/day from day 9, sham around 2): under 1 | long term clinical scores compared to sham treated [3]: remarkably reduced | long term clinical scores compared to sham treated ([3]; listed as JM4): significantly lower | animals remaining relapse-free by clinical scoring ([3]; throughout the 5-month experiment, sham 20%): 50% | number of spinal cord bioluminescence flare ups (mean+/−SEM) (GFAP-luc [4]; 5 μg IV daily for 12 days, n=8 JM-4, n=7 sham, sham 10.29+/−2.447, p<0.05): 4.0+/−1.018 | average daily intensity of the bioluminescent signal versus sham-treated (GFAP-luc [4]; chronic remitting-relapsing EAE): not significantly different | number of imaging flare ups / GFAP-luc expression compared to sham treated (GFAP-luc [4]): substantially less; also recorded: significantly decreased | number of imaging flare ups / GFAP-luc expression compared to sham treated (GFAP-luc [4]; listed as JM4): significantly decreased | spinal cord demyelination and axonal injury ([5]; Luxol fast blue, ventral white matter): protective against spinal cord demyelination and axonal injury | number of injured axons (SMI-32) rimming the ventral spinal cord versus sham ([5]; mouse, in vivo): large reduction in number of injured axons | IgG immunoreactivity in spinal cord (blood-brain barrier breakdown) ([5]; versus saline treated EAE): profoundly reduced | C3 expression in spinal cord (complement component C3; 24 days post immunization, JM4 250 μg/kg IV 12 days from day 9, n=7 per group, EAE 17.5+/−3.7, p<0.05): 8.3+/−1.9 | attenuation of A1 astrocyte activation (complement component C3; EAE mice): over 50% | C3 / A1 astrocyte immunoreactivity versus untreated EAE (complement component C3; spinal cord): massive reduction of C3 positive A1 astrocytes; also recorded: significant decrease in C3 immunoreactivity | hematogenic side effects [6]: without the negative hematogenic side effects | decrease of dendritic cells (EAE mice; EAE mice): ten-fold | mononuclear cells count (EAE mice; EAE mice): reduced elevated mononuclear cells count to normal | proinflammatory cytokines including IL-2, IL-6, TNF-alpha and INF-gamma (EAE mice; EAE mice): decreased proinflammatory cytokines | T helper Th 17 positive cells (EAE mice; SJL/J EAE mice): reduce T helper Th 17 positive cells | Treg cells (EAE mice; SJL/J EAE mice): expand Treg cells | tissue protective properties (EAE mice; symptomatic EAE mice, literature): robust EPO-like tissue protective properties | erythropoietic activity [7]: without the activities responsible for excessive erythropoiesis
